Test results from article PMC9237828, “Chemically Tuning Resveratrol for the Effective Killing of Gram-Positive Pathogens” (Journal of Natural Products, 2022).
Values after ≈ are worked out from the molar mass of the structure shown. Like-named read-outs stand apart in the source and are kept apart here. Non-standard residues stand in square brackets, D forms with d. Residues, ends and D or L forms follow the SMILES beside them. Orn = NCCC[C@H](N)C(=O)O

Key:
[1] = system: B. cereus ATCC10987; assay: microbe, parasite or virus in culture; type: cell-based, Bacillus cereus; conditions: for MIC: Bacillus cereus, ATCC10987, 20 h, read-out: Minimal Inhibition Concentration (MIC) B. cereus ATCC10987
[2] = system: E. faecalis LMG16216; assay: microbe, parasite or virus in culture; type: cell-based, Enterococcus faecalis
[3] = system: E. faecium LMG16003; assay: microbe, parasite or virus in culture; type: cell-based
[4] = system: E. faecium LMG11423; assay: microbe, parasite or virus in culture; type: cell-based
[5] = system: B. cereus ATCC14579; assay: microbe, parasite or virus in culture; type: cell-based, Bacillus cereus; conditions: for MIC: Bacillus cereus, ATCC14579, 20 h, read-out: Minimal Inhibition Concentration (MIC) B. cereus ATCC14579
[6] = system: B. cereus ATCC10987; assay: Effect of the compounds on actively growing bacteria (lysis, OD600); type: cell-based, Bacillus cereus
[7] = system: C. ihumii AP5; assay: MIC test, anaerobes; type: cell-based; conditions: 24 h, read-out: Minimal Inhibition Concentration (MIC) C. ihumii AP5
Experimental: (§1) The resveratrol derivatives were serially diluted in cMHB (BD Difco) in 96-well microplates. Plates were then inoculated with the indicator bacteria at a final concentration of 5 × 10^5 CFU/mL and incubated at 37 °C for 20 h. In the case of the anaerobic bacteria (Clostridium and Clostridioides), the test was performed following the recommendation of CLSI for anaerobes[77] but using RCM medium instead of cMHB. The cultures were cultivated inside an anaerobic chamber at 37 °C for 24 h. All the tests were performed in triplicate.

[8] = system: C. beijerinckii B504; assay: MIC test, anaerobes; type: cell-based
Experimental: as §1

[9] = system: C. botulinum CECT551; assay: microbe, parasite or virus in culture; type: cell-based
[10] = system: S.aureus LMG8224; assay: microbe, parasite or virus in culture; type: cell-based, Staphylococcus aureus
[11] = system: C. perfringens CECT376; assay: microbe, parasite or virus in culture; type: cell-based; conditions: for MIC: Clostridium perfringens, CECT376, 24 h, read-out: Minimal Inhibition Concentration (MIC) C. perfringens CECT376
[12] = system: B. cereus ATCC 10987, E. faecalis V583, E. faecium LMG 16003, and S. aureus LMG 8224; type: cell-based; conditions: 2-fold the MIC, 24 h, cMHB
[13] = system: C. difficile CECT531; assay: microbe, parasite or virus in culture; type: cell-based, Clostridioides difficile; conditions: for MIC: Clostridioides difficile, CECT531, 24 h, read-out: Minimal Inhibition Concentration (MIC) C. difficile CECT531
[14] = system: MRC5 cells
[15] = system: S.aureus LMG10147; assay: microbe, parasite or virus in culture; type: cell-based, Staphylococcus aureus; conditions: for MIC: Staphylococcus aureus, LMG10147, 20 h, read-out: Minimal Inhibition Concentration (MIC) S.aureus LMG10147
[16] = system: E. coli LMG8224; assay: Outer membrane permeabilization test (MIC with or without L-11 peptide); conditions: for MIC (μM) L-11 + 4 μM: presence of 4 μM L-11 outer-membrane-perturbing peptide; for MIC: Escherichia coli, LMG8224, read-out: MIC (μM) L-11 + 0 μM
[17] = system: E. faecium LMG16003 and S. aureus LMG82224; assay: Combination with 24 traditional antibiotics, overall outcome; type: cell-based
[18] = system: S.aureus LMG15975; assay: microbe, parasite or virus in culture; type: cell-based, Staphylococcus aureus
[19] = system: E. faecalis V583; assay: microbe, parasite or virus in culture; type: cell-based, Enterococcus faecalis; conditions: for MIC: Enterococcus faecalis, V583, 20 h, read-out: Minimal Inhibition Concentration (MIC) E. faecalis V583
[20] = system: C. tetani CECT4629; assay: microbe, parasite or virus in culture; type: cell-based
[21] = system: E. faecalis LMG08222; assay: microbe, parasite or virus in culture; type: cell-based, Enterococcus faecalis
[22] = in vitro; conditions: human
[23] = system: B. cereus ATCC10987 respiratory chain; assay: Activity of the respiratory chain (resazurin reduction); type: cell-based, Bacillus cereus; conditions: dose-related, 125 min
Experimental: The effect of the resveratrol derivatives on the B. cereus ATCC10987 respiratory chain was measured by the reduction of resazurin to the fluorescent resorufin. The bacteria were cultured in LB medium at 37 °C to an OD600 of 1. Then, the cells were washed three times in cMHB and resuspended in this medium at a final OD600 of 0.2. Resazurin at 100 μg/mL was added to the cells that were distributed in a 96-well plate. […] No treated cells and just MHB medium with resazurin were used as negative controls. All the tests were performed in triplicate.

[24] = system: S. aureus; design: method as in PMID 29906565; conditions: cited from earlier work
[25] = system: B. cereus ATCC10987; assay: Intracellular ATP level quantification (BacTiter-Glo); conditions: 32 μM of the compounds (100 μM for CCCP), 30, 60, and 120 min, 37 °C
[26] = system: B. cereus ATTC10987; assay: Membrane integrity assay (propidium iodide uptake); type: cell-based, Bacillus cereus; conditions: 2×, 1×, and 0.5× the MIC
Experimental: B. cereus ATTC10987 was grown in LB with shaking at 37 °C for 18 h. After that, the cells were centrifuged and washed in 5 mM HEPES buffer (pH 7.4) plus 5 mM glucose (G-HEPES buffer) three times, adjusted to an OD600 of 0.5 in the same buffer plus 10 μg/mL of propidium iodide (Sigma-Aldrich), and incubated for 10 min at 37 °C. This is a nonfluorescent dye impermeable to the bacterial membranes, but, if the membranes are disturbed, the dye can enter by binding the DNA, providing a strong fluorescent signal. […] The experiment was performed in triplicate.

[27] = system: B. cereus ATCC10987; assay: Membrane potential assay DiSC3(5); conditions: 2×, 1×, and 0.5× the MIC
[28] = system: panel of aerobic and anaerobic Gram-positive bacteria; assay: organism not typed; type: cell-based
[29] = system: Enterococcus strains; assay: Time killing kinetic and minimal bactericidal concentration, Enterococcus; type: cell-based
[30] = Table 1, 128 to 2 μM, RCM medium, anaerobic, 24 h

4′-tert-butyldimethylsilyl resveratrol [compound 17]
Minimal Inhibition Concentration (MIC) B. cereus ATCC10987 [1]: 8 ± 0 µM
Minimal Inhibition Concentration (MIC) E. faecalis LMG16216 [2]: 8 ± 0 µM
Minimal Inhibition Concentration (MIC) E. faecium LMG16003 [3]: 8 ± 0 µM
Minimal Inhibition Concentration (MIC) E. faecium LMG11423 [4]: 8 ± 0 µM
Minimal Inhibition Concentration (MIC) B. cereus ATCC14579 [5]: 4 ± 0 µM
effect on actively growing cells ([6]; at 2× the MIC): bactericidal
effect on actively growing cells ([6]; at the MIC concentration): bacteriostatic
MIC ([7]; Table 1, 128 to 2 μM, RCM medium, anaerobic): 16 µM
Minimal Inhibition Concentration (MIC) C. beijerinckii B504 [8, 30]: 10.6 ± 2.6 µM
Minimal Inhibition Concentration (MIC) C. botulinum CECT551 [9, 30]: 13.3 ± 2.6 µM
Minimal Inhibition Concentration (MIC) S.aureus LMG8224 [10]: 8 ± 0 µM
Minimal Inhibition Concentration (MIC) C. perfringens CECT376 [11]: 13.3 ± 2.6 µM
bactericidal/bacteriostatic effect [12]: bactericidal
Minimal Inhibition Concentration (MIC) C. difficile CECT531 [13]: 21.3 ± 5.3 µM
IC50 [14]: 15.5 ± 1.3 µM
Minimal Inhibition Concentration (MIC) S.aureus LMG10147 [15]: 8 ± 0 µM
MIC (μM) L-11 + 0 μM ([16]; absence of L-11 outer-membrane-perturbing peptide): >128 µM
MIC (μM) L-11 + 4 μM [16]: 13.3 ± 2.6 µM
combined effect with traditional antibiotics [17]: an additive effect was mainly observed
Minimal Inhibition Concentration (MIC) S.aureus LMG15975 [18]: 8 ± 0 µM
Minimal Inhibition Concentration (MIC) E. faecalis V583 [19]: 8 ± 0 µM
Minimal Inhibition Concentration (MIC) C. tetani CECT4629 [20, 30]: 5.3 ± 1.3 µM
Minimal Inhibition Concentration (MIC) E. faecalis LMG08222 [21]: 6.6 ± 1.3 µM

Oc1ccc(/C=C/c2cc(O)cc(O)c2)cc1 [compound 1, Resveratrol]
IC50 at 72 h [22]: 56.6 ± 3.2 µM
effect on the respiratory chain (reduction of resazurin) [23]: No effect
concentration 0.5× the MIC at which additive effects with aminoglycosides were obtained [24]: about 560 μM
intracellular ATP levels [25]: did not statistically affect the ATP levels
membrane permeabilization (propidium iodide uptake) [26]: did not induce any effect on membrane permeability
membrane potential change (DiSC3(5)) [27]: did not induce any membrane potential change

CCCCOc1cc(/C=C/c2ccc(OS(=O)(=O)O)cc2)cc(OS(=O)(=O)O)c1 [compound 15, 3-butyl-4′,5-disulfate resveratrol]
MIC [1]: 8 µM (≈ 3.56 µg/mL)
IC50 [22]: 24.9 ± 4 µM
MIC [5]: 6.6 ± 1.3 µM (≈ 2.93 µg/mL)
effect on actively growing cells ([6]; at 2× the MIC): bactericidal
effect on actively growing cells ([6]; at the MIC concentration): bacteriostatic
antibacterial activity against the Gram-positive panel [28]: active against all Gram-positive bacterial strains examined
MIC [11]: 26.6 ± 5.3 µM (≈ 11.8 µg/mL)
MIC [13]: 64 µM (≈ 28.4 µg/mL)
bactericidal/bacteriostatic effect ([29]; Enterococcus strains, 2-fold the MIC, 24 h, minimal bactericidal concentration test): bacteriostatic
MBC ([29]; Enterococcus, read-out: minimal bactericidal concentration (bacteria grew after the treatment)): > 128 µM
MIC [15]: 8 µM (≈ 3.56 µg/mL)
MIC [16]: > 128 µM
combined effect with traditional antibiotics [17]: strong synergistic effects
MIC [19]: 26.6 ± 5.3 µM (≈ 11.8 µg/mL)

CC(C)[Si](Oc1cc(O)cc(/C=C/c2ccc(O)cc2)c1)(C(C)C)C(C)C [compound 32]
MIC [1]: 8 µM (≈ 3.08 µg/mL)
MIC ([2]; Enterococcus faecalis, LMG16216, 20 h, read-out: Minimal Inhibition Concentration (MIC) E. faecalis LMG16216): 4 µM (≈ 1.54 µg/mL)
MIC ([3]; Enterococcus faecium, LMG16003, 20 h, read-out: Minimal Inhibition Concentration (MIC) E. faecium LMG16003): 4 µM (≈ 1.54 µg/mL)
MIC ([4]; Enterococcus faecium, LMG11423, 20 h, read-out: Minimal Inhibition Concentration (MIC) E. faecium LMG11423): 4 µM (≈ 1.54 µg/mL)
IC50 [22]: 1.8 ± 0.1 µM
MIC [5]: 8 µM (≈ 3.08 µg/mL)
lysis of actively growing cells ([6]; 2×, 1×, and 0.5× the MIC added at mid exponential phase): most effective derivatives lysing the cells
MIC [7]: 16 µM (≈ 6.15 µg/mL)
MIC ([8]; Clostridium beijerinckii, B504, 24 h, read-out: Minimal Inhibition Concentration (MIC) C. beijerinckii B504): 10.7 ± 2.6 µM (≈ 4.12 µg/mL)
MIC ([9]; Clostridium botulinum, CECT551, 24 h, read-out: Minimal Inhibition Concentration (MIC) C. botulinum CECT551): 8 µM (≈ 3.08 µg/mL)
effect on the respiratory chain (reduction of resazurin) [23]: comparable to or even higher than that of the proton ionophore decoupler of the electron transport chain CCCP
MIC ([10]; Staphylococcus aureus, LMG8224, 20 h, read-out: Minimal Inhibition Concentration (MIC) S.aureus LMG8224): 8 µM (≈ 3.08 µg/mL)
MIC [11]: 16 µM (≈ 6.15 µg/mL)
bactericidal/bacteriostatic effect [12]: bactericidal
MIC [13]: 16 µM (≈ 6.15 µg/mL)
MIC [15]: 8 µM (≈ 3.08 µg/mL)
MIC [16]: > 128 µM
MIC (μM) L-11 + 4 μM [16]: 8 ± 0 µM
intracellular ATP levels [25]: reduced dramatically the ATP levels
MIC ([18]; Staphylococcus aureus, LMG15975, 20 h, read-out: Minimal Inhibition Concentration (MIC) S.aureus LMG15975): 8 µM (≈ 3.08 µg/mL)
MIC [19]: 8 µM (≈ 3.08 µg/mL)
MIC ([20]; Clostridium tetani, CECT4629, 24 h, read-out: Minimal Inhibition Concentration (MIC) C. tetani CECT4629): 5.3 ± 1.3 µM (≈ 2.04 µg/mL)
MIC ([21]; Enterococcus faecalis, LMG08222, 20 h, read-out: Minimal Inhibition Concentration (MIC) E. faecalis LMG08222): 4 µM (≈ 1.54 µg/mL)

CC(C)C[C@@H]1NC(=O)[C@H](CCCN)NC(=O)[C@H](C(C)C)NC(=O)[C@@H]2CCCN2C(=O)[C@@H](Cc2ccccc2)NC(=O)[C@H](CC(C)C)NC(=O)[C@H](CCCN)NC(=O)[C@H](C(C)C)NC(=O)[C@@H]2CCCN2C(=O)[C@@H](Cc2ccccc2)NC1=O [gramicidin S, Gramicidin S] (cyclo(V[Orn]L[dF]PV[Orn]L[dF]P))
membrane potential change (DiSC3(5)) [27]: induced a strong membrane depolarization
